These results are taken from patent publication US20230374035A1, “RAS INHIBITORS” (Revolution Medicines, Inc., priority 2019, published 2023).

Like-named read-outs stand apart in the source and are kept apart here.

The target of one series is KRAS Q61H (Homo sapiens, UniProt P01116+P62937, Q61H). In words: Disruption of BRAF RBD interaction with K-Ras (FRET / MOA assay). In kind it is biochemical. The method, then:
(§1) Compound is present in plate wells as a 10-point 3-fold dilution series starting at a final concentration of 30 μM. […] Compounds that facilitate disruption of a Ras:RAF complex are identified as those eliciting a decrease in the TR-FRET ratio relative to DMSO control wells.
(§2) Note—The following protocol describes a procedure for monitoring disruption of K-Ras G12C (GMP-PNP) binding to BRAF^RBD by a compound of the invention. This protocol may also be executed substituting other Ras proteins or nucleotides.
(§3) The purpose of this biochemical assay was to measure the ability of test compounds to facilitate ternary complex formation between a nucleotide-loaded K-Ras isoform and Cyclophilin A; the resulting ternary complex disrupts binding to a BRAF^RBD construct, inhibiting K-Ras signaling through a RAF effector. Data is reported as IC50 values.
(§4) Compound was present in plate wells as a 10-point 3-fold dilution series starting at a final concentration of 30 μM. […] Compounds that facilitate disruption of a K-Ras:RAF complex were identified as those eliciting a decrease in the TR-FRET ratio relative to DMSO control wells.

A further series has as its target KRAS G12C (Homo sapiens, UniProt P01116+P62937, G12C). The series is described as above. It counts as biochemical. The protocol: as §1, §2, §3, §4
A further series concerns the target NRAS WT (Homo sapiens, UniProt P01111+P62937). In words: Disruption of BRAF RBD interaction with Ras (FRET / MOA assay). In kind it is biochemical. The method in brief:
(§5)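 TR-FRET readout: a drop in ratio versus DMSO wells marks disruption of the Ras:BRAF^RBD complex, reported as IC50. Compound acts via a Cyclophilin A ternary complex with nucleotide-loaded Ras (e.g., GMP-PNP). Top final concentration was 30 μM, 10 points, 3-fold steps.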

The next series addresses NRAS Q61K (Homo sapiens, UniProt P01111+P62937, Q61K). The description is as above. It counts as biochemical. Put shortly: as §5
For another series, the target named is NRAS Q61R (Homo sapiens, UniProt P01111+P62937, Q61R). The description is as above. It counts as biochemical. Put shortly:
as §5

Setting [1] is: read-out: KRAS Q61H FRET data IC50.
The mark [2] stands for this setting: read-out: KRAS G12C FRET data IC50.
Setting [3] is: read-out: NRAS WT FRET data IC50.
Where [4] appears, read: read-out: NRAS Q61K FRET data IC50.
The mark [5] stands for this setting: read-out: NRAS Q61R FRET data IC50.

Chain of NRAS Q61R (P01111 whole entry Q61R): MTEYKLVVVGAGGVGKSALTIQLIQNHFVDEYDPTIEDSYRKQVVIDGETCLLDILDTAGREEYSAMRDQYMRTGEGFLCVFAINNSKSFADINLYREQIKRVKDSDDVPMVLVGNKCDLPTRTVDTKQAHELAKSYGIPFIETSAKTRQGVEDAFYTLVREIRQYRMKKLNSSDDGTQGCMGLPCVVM
Chain of NRAS Q61R (P62937 whole entry): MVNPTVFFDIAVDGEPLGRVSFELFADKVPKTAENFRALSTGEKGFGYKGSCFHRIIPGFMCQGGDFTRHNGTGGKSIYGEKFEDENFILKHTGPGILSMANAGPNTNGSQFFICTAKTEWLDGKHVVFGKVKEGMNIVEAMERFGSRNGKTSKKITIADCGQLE
Chain of KRAS G12C (P01116 1-188 isoform P01116-2 G12C): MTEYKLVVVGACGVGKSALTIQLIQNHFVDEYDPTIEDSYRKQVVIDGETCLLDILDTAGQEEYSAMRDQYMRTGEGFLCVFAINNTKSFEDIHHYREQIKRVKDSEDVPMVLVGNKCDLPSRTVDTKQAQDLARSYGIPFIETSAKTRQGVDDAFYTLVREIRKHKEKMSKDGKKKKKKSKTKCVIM
Chain of KRAS G12C (P62937 whole entry): as the sequence (P62937 whole entry) above
Chain of NRAS Q61K (P01111 whole entry Q61K): as the sequence (P01111 whole entry Q61R) above, with R61K counted along it
Chain of NRAS Q61K (P62937 whole entry): as the sequence (P62937 whole entry) above
Chain of NRAS WT (P01111 whole entry): as the sequence (P01111 whole entry Q61R) above, with R61Q counted along it
Chain of NRAS WT (P62937 whole entry): as the sequence (P62937 whole entry) above
Chain of KRAS Q61H (P01116 1-188 isoform P01116-2 Q61H): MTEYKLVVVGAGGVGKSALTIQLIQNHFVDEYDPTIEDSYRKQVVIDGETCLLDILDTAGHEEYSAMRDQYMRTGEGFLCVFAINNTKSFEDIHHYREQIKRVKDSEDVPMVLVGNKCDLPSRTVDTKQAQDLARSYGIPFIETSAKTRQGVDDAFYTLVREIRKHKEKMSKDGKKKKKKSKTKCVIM
Chain of KRAS Q61H (P62937 whole entry): as the sequence (P62937 whole entry) above

As to `CO[C@@H](C)c1ncccc1-c1c2c3cc(ccc3n1CC(F)(F)F)-c1csc(n1)C[C@H](NC(=O)[C@H](C(C)C)N(C)C(=O)N1CC(N(C)C)C1)C(=O)N1CCC[C@H](N1)C(=O)OCC(C)(C)C2` (atropisomer, axis not shown) [Compound A328], the 50% inhibitory concentration (IC50) at KRAS Q61H (setting [1]), at KRAS G12C (setting [2]), on NRAS WT (setting [3]), at NRAS Q61K (setting [4]) and on NRAS Q61R (setting [5]) was more than 10 µM throughout.

Regarding `CCn1c(-c2cccnc2[C@H](C)OC)c2c3cc(ccc31)-c1csc(n1)C[C@H](NC(=O)[C@H](C(C)C)N1CCC3(CN(S(C)(=O)=O)C3)C1=O)C(=O)N1CCC[C@H](N1)C(=O)OCC(C)(C)C2` (racemic) [Compound A234], the IC50 (commonly the concentration that inhibits the measured activity by half) at KRAS Q61H (setting [1]) is 1 to 10 µM; on KRAS G12C (setting [2]), more than 10 µM; at NRAS Q61R (setting [5]), more than 10 µM.

`CCn1c(-c2cccnc2[C@H](C)OC)c2c3cc(ccc31)-c1csc(n1)C[C@H](NC(=O)OC(C)(C)C)C(=O)N1CC[C@H](C)[C@H](N1)C(=O)OCC(C)(C)C2` registered a ring closure, yield of all isomers (from CCn1c(-c2cccnc2[C@H](C)OC)c(CC(C)(C)COC(=O)[C@H]2NN(C(=O)[C@H](Cc3nc(Br)cs3)NC(=O)OC(C)(C)C)CC[C@@H]2C)c2cc(B3OC(C)(C)C(C)(C)O3)ccc21, cc_pd bond, Pd(DTBpf)Cl2, K3PO4, dioxane, 17.5 mM, 60.0 °C, 1.0 h) of 44.7%.

Regarding `CCn1c(-c2cccnc2[C@H](C)OC)c2c3cc(ccc31)-c1cc(cc(NC(C)=O)c1)C[C@H](NC(=O)[C@H](C(C)C)N(C)C(C)=O)C(=O)N1CCC[C@H](N1)C(=O)OCC(C)(C)C2` (racemic) [Compound A145], the IC50 at KRAS Q61H is 1 to 10 µM; at KRAS G12C, more than 10 µM; against NRAS WT, more than 10 µM; against NRAS Q61K it was more than 10 µM; against NRAS Q61R, more than 10 µM.

Consider `CCn1c(-c2cc(N3CCN(C(=O)OCc4ccccc4)CC3)cnc2[C@H](C)OC)c2c3cc(ccc31)-c1csc(n1)C[C@H](NC(=O)OC(C)(C)C)C(=O)N1CCC[C@H](N1)C(=O)OCC(C)(C)C2`, for which the ring closure, yield of all isomers (from CCn1c(-c2cc(N3CCN(C(=O)OCc4ccccc4)CC3)cnc2[C@H](C)OC)c(CC(C)(C)CO)c2cc(-c3csc(C[C@H](NC(=O)OC(C)(C)C)C(=O)N4CCC[C@@H](C(=O)O)N4)n3)ccc21, ester bond, EDCl/HOBt/DIPEA, MeCN, 10.34 mM, 25.0 °C, 16.0 h) turned out to be 54.8%.

`CCn1c(-c2cccnc2[C@H](C)OC)c2c3cc(ccc31)-c1cc(O)cc(c1)C[C@H](NS(=O)(=O)C1CS(=O)(=O)C1)C(=O)N1CCC[C@H](N1)C(=O)OCC(C)(C)C2` (racemic) [Compound A191]: the IC50 on KRAS Q61H (setting [1]), on KRAS G12C (setting [2]), on NRAS WT (setting [3]), at NRAS Q61K (setting [4]) and on NRAS Q61R (setting [5]) was more than 10 µM each time.

Turning to `CCn1c(-c2cccnc2[C@H](C)OC)c2c3cc(ccc31)-c1csc(n1)C[C@H](NC(=O)OC(C)(C)C)C(=O)N1CCC[C@H](N1)C(=O)OCC(C)(C)C2`, under “from CCn1c(-c2cccnc2[C@H](C)OC)c(CC(C)(C)CO)c2cc(-c3csc(C[C@H](NC(=O)OC(C)(C)C)C(=O)N4CCC[C@@H](C(=O)O)N4)n3)ccc21, ester bond, EDCl/HOBt/DIPEA, DCM, 12.65 mM, 25.0 °C, 16.0 h”, the ring closure, yield of all isomers turned out to be 81%.

In the case of `CCn1c(-c2cccnc2[C@H](C)OC)c2c3cc(ccc31)-c1cc(O)cc(c1)C[C@H](NS(=O)(=O)N1CCC1)C(=O)N1CCC[C@H](N1)C(=O)OCC(C)(C)C2` (racemic) [Compound A189], the IC50 at KRAS Q61H (setting [1]), at KRAS G12C (setting [2]), on NRAS WT (setting [3]), at NRAS Q61K (setting [4]) and at NRAS Q61R (setting [5]) was more than 10 µM throughout.

The compound `CCn1c(-c2cccnc2[C@H](C)OC)c2c3cc(ccc31)-c1csc(n1)[C@@H](OC)[C@H](N(Cc1ccccc1)Cc1ccccc1)C(=O)N1CCC[C@H](N1)C(=O)OCC(C)(C)C2` gave a ring closure, yield of all isomers (from CCn1c(-c2cccnc2[C@H](C)OC)c(CC(C)(C)COC(=O)[C@@H]2CCCN(C(=O)[C@H]([C@H](OC)c3nc(Br)cs3)N(Cc3ccccc3)Cc3ccccc3)N2)c2cc(B3OC(C)(C)C(C)(C)O3)ccc21, cc_pd bond, Pd(DtBPF)Cl2, dioxane, 40.0 mM, 80.0 °C, 2.0 h) of 44.4%.

In the case of `CCn1c(-c2cccnc2[C@H](C)OC)c2c3cc(ccc31)-c1cc(O)cc(c1)C[C@H](NS(=O)(=O)CC#N)C(=O)N1CCC[C@H](N1)C(=O)OCC(C)(C)C2` (racemic) [Compound A186], the IC50 at KRAS Q61H (setting [1]), against KRAS G12C, at NRAS WT (setting [3]), on NRAS Q61K (setting [4]) and on NRAS Q61R was more than 10 µM throughout.

Turning to `CCn1c(-c2cccnc2[C@H](C)OC)c2c3cc(ccc31)-c1cc(cc(S(C)(=O)=O)c1)C[C@H](NC(=O)[C@H](C(C)C)N(C)C(C)=O)C(=O)N1CCC[C@H](N1)C(=O)OCC(C)(C)C2` (racemic) [Compound A154], the IC50 at KRAS Q61H (setting [1]), on KRAS G12C (setting [2]), at NRAS WT (setting [3]), at NRAS Q61K (setting [4]) and on NRAS Q61R (setting [5]) was more than 10 µM each time.
